Laboratory results from patent US9090570B2, “Compounds for inflammation and immune-related uses” (Synta Pharmaceuticals Corp., priority 2005, dated 2015).
Structures can show the parent of a compound that is named as a salt.

Tested on: IL-2 production
Experiment: Inhibition of IL-2 production in PHA-activated Jurkat cells (ELISA)
Format: cell-based
Conditions: Homo sapiens, Jurkat, 20 h, PHA 2.5 μg/mL, IL-2 ELISA
Description: Jurkat cells were placed in a 96 well plate (0.5 million cells per well in 1% FBS medium) then a test compound of this invention was added at different concentrations. After 10 minutes, the cells were activated with PHA (final concentration 2.5 μg/mL) and incubated for 20 hours at 37° C. under CO2. The final volume was 200 μL. Following incubation, the cells were centrifuged and the supernatants collected and stored at −70° C. prior to assaying for IL-2 production. A commercial ELISA kit (IL-2 Eli-pair, Diaclone Research, Besancon, France) was used to detect production of IL-2, from which dose response curves were obtained. The IC50 value was calculated as the concentration at which 50% of maximum IL-2 production after stimulation was inhibited versus a non-stimulation control.

| SMILES | IC50 [nM] |
| --- | --- |
| O=C(Nc1cnc(-c2cc(C(F)(F)F)ccc2Cl)cn1)c1c(F)cccc1F [Compound 4, N-[5-(2-Chloro-5-trifluoromethyl-phenyl)-pyrazin-2-yl]-2,6-difluoro-benzamide hydrochloride] | 6 |

Same assay, conditions: Homo sapiens, PHA 2.5 μg/mL, 20 hours, IL-2 ELISA

| IC50 [nM] | SMILES |
| --- | --- |
| 55 | Cc1ccc(-c2ncco2)cc1-c1cnc(NC(=O)c2snnc2C)cn1 [Compound 64, 4-Methyl-[1,2,3]thiadiazole-5-carboxylic acid [5-(2-methyl-5-oxazol-2-yl-phenyl)-pyrazin-2-yl]-amide] |
| 49.2 | COC(=O)c1ccc(C)c(-c2cnc(NC(=O)c3ccncc3F)cn2)c1 [Compound 109, 3-{5-[(3-Fluoro-pyridine-4-carbonyl)-amino]-pyrazin-2-yl}-4-methyl-benzoic acid methyl ester] |
| 15.7 | COc1ccc(OC)c(-c2cnc(NC(=O)c3c(F)cccc3F)cn2)c1 [Compound 110, N-[5-(2,5-Dimethoxy-phenyl)-pyrazin-2-yl]-2,6-difluoro-benzamide] |
| 22.3 | O=C(Nc1cnc(-c2cc(C(F)(F)F)ccc2Cl)cn1)C1CCCCC1 [Compound 112, Cyclohexanecarboxylic acid [5-(2-chloro-5-trifluoromethyl-phenyl)-pyrazin-2-yl]-amide] |
| 207 | COc1ccc(OC)c(-c2cnc(NC(=O)c3ccncc3F)cn2)c1 [Compound 113, N-[5-(2,5-Dimethoxy-phenyl)-pyrazin-2-yl]-3-fluoro-isonicotinamide] |
| 61.6 | Cc1nnsc1C(=O)Nc1cnc(-c2cc(C(F)(F)F)ccc2Cl)cn1 [Compound 114, 4-Methyl-[1,2,3]thiadiazole-5-carboxylic acid [5-(2-chloro-5-trifluoromethyl-phenyl)-pyrazin-2-yl]-amide] |
| 145 | COc1ccc(OC)c(-c2cnc(NC(=O)c3ccncc3C)cn2)c1 [Compound 117, N-[5-(2,5-Dimethoxy-phenyl)-pyrazin-2-yl]-3-methyl-isonicotinamide] |
| 34 | COc1ccc(OC)c(-c2cnc(NC(=O)c3c(F)cncc3F)cn2)c1 [Compound 118, N-[5-(2,5-Dimethoxy-phenyl)-pyrazin-2-yl]-3,5-difluoro-isonicotinamide] |
| 302 | COc1ccc(OC)c(-c2cnc(NC(=O)c3snnc3C)cn2)c1 [Compound 119, 4-Methyl-[1,2,3]thiadiazole-5-carboxylic acid [5-(2,5-dimethoxy-phenyl)-pyrazin-2-yl]-amide] |
| 352 | COc1ccc(OC)c(-c2cnc(NC(=O)C3CCCCC3)cn2)c1 [Compound 120, Cyclohexanecarboxylic acid [5-(2,5-dimethoxy-phenyl)-pyrazin-2-yl]-amide] |
| 38.5 | Cc1ccc(-c2ncco2)cc1-c1cnc(NC(=O)C2CCCCC2)cn1 [Compound 121, Cyclohexanecarboxylic acid [5-(2-methyl-5-oxazol-2-yl-phenyl)-pyrazin-2-yl]-amide] |

More lines, now with the values behind:

| SMILES | IC50 [nM] |
| --- | --- |
| O=C(Nc1cnc(-c2cc(C(F)(F)F)ccc2Cl)cn1)c1c(F)cccc1F [Compound 1, N-[5-(2-Chloro-5-trifluoromethyl-phenyl)-pyrazin-2-yl]-2,6-difluoro-benzamide] | 2 |
| O=C(Nc1cnc(-c2cc(C(F)(F)F)ccc2Cl)cn1)c1ccncc1F [Compound 2, N-[5-(2-Chloro-5-trifluoromethyl-phenyl)-pyrazin-2-yl]-3-fluoro-isonicotinamide] | 115 |
| O=C(Nc1ccc(-c2cc(C(F)(F)F)ccc2Cl)nn1)c1c(F)cccc1F [Compound 60, N-[6-(2-Chloro-5-trifluoromethyl-phenyl)-pyridazin-3-yl]-2,6-difluoro-benzamide] | > 1000 |
| Cc1ccc(-c2ncco2)cc1-c1cnc(NC(=O)c2ccncc2F)cn1 [Compound 61, 3-Fluoro-N-[5-(2-methyl-5-oxazol-2-yl-phenyl)-pyrazin-2-yl]-isonicotinamide] | 50.5 |
| Cc1cnccc1C(=O)Nc1cnc(-c2cc(-c3ncco3)ccc2C)cn1 [Compound 62, 3-Methyl-N-[5-(2-methyl-5-oxazol-2-yl-phenyl)-pyrazin-2-yl]-isonicotinamide] | 32.2 |
| Cc1ccc(-c2ncco2)cc1-c1cnc(NC(=O)c2c(F)cncc2F)cn1 [Compound 63, 3,5-Difluoro-N-[5-(2-methyl-5-oxazol-2-yl-phenyl)-pyrazin-2-yl]-isonicotinamide] | 18.5 |
| Cc1ncccc1C(=O)Nc1cnc(-c2cc(C(F)(F)F)ccc2Cl)cn1 [Compound 111, N-[5-(2-Chloro-5-trifluoromethyl-phenyl)-pyrazin-2-yl]-2-methyl-nicotinamide] | 133 |
| O=C(Nc1cnc(-c2cc(C(F)(F)F)ccc2Cl)cn1)c1c(F)cncc1F [Compound 115, N-[5-(2-Chloro-5-trifluoromethyl-phenyl)-pyrazin-2-yl]-3,5-difluoro-isonicotinamide] | 4.1 |
| O=C(Nc1ncc(-c2cc(C(F)(F)F)ccc2Cl)cn1)c1c(F)cccc1F [Compound 116, N-[5-(2-Chloro-5-trifluoromethyl-phenyl)-pyrimidin-2-yl]-2,6-difluoro-benzamide] | 118 |
| O=C(Nc1cnc(-c2cc(C(F)(F)F)ccc2Cl)nc1)c1c(F)cccc1F [Compound 122, N-[2-(2-Chloro-5-trifluoromethyl-phenyl)-pyrimidin-5-yl]-2,6-difluoro-benzamide] | 654 |
